Measured values reported in ChEMBL document CHEMBL1833918, “Design and synthesis of potent, orally-active DGAT-1 inhibitors containing a dioxino[2,3-d]pyrimidine core” (Bioorg Med Chem Lett, 2011).
The source made the active and inactive calls. The rule behind the calls is not given here.

Columns and labels:
[1] = Lipophilicity, log D of the compound at pH 7.4; format: physicochemical; settings: buffer
hERG (KCNH2) = hERG (KCNH2) (Homo sapiens, UniProt Q12809); assay: Inhibition of human ERG at 30 uM
[2] = Permeability of the compound; format: ADME; settings: not told; read-out: permeability
[3] = Clearance in rat; format: ADME, organism-based; settings: in vivo
Rattus norvegicus [4] = assay: Toxicity in rat assessed as clinical signs up to 500 mg/kg; format: organism-based; parameters: dose 500 mg/kg; settings: in vivo
Mus musculus [5] = species: Mus musculus; settings: C57BL6J, 1 to 3 mg/kg
Description: Inhibition of triglyceride synthesis in a lipid challenged C57BL6J mouse at 1 to 3 mg/kg, po coadministered with bolus of lipid

Rattus norvegicus [6] = assay: Toxicity in rat assessed as histopathological signs up to 500 mg/kg; format: organism-based; parameters: dose 500 mg/kg; settings: in vivo
Liver microsomes = assay: Stability of the compound in human liver microsomes at 10 uM after 30 mins in presence of glutathione ethyl ester; format: ADME, Microsome; settings: 0.5 h
Salmonella typhimurium = assay: Genotoxicity in Salmonella Typhimurium by Ames test; format: toxicity, organism-based; settings: salmonella enterica subsp. enterica serovar typhimurium
Rattus norvegicus [7] = assay: Toxicity in rat assessed as hematological signs up to 500 mg/kg; format: organism-based; parameters: dose 500 mg/kg; settings: in vivo
Mus musculus [8] = assay: Inhibition of triglyceride synthesis in a lipid challenged C57BL6J mouse administered orally; format: functional; settings: po

hERG (KCNH2), sequence (Q12809 whole entry): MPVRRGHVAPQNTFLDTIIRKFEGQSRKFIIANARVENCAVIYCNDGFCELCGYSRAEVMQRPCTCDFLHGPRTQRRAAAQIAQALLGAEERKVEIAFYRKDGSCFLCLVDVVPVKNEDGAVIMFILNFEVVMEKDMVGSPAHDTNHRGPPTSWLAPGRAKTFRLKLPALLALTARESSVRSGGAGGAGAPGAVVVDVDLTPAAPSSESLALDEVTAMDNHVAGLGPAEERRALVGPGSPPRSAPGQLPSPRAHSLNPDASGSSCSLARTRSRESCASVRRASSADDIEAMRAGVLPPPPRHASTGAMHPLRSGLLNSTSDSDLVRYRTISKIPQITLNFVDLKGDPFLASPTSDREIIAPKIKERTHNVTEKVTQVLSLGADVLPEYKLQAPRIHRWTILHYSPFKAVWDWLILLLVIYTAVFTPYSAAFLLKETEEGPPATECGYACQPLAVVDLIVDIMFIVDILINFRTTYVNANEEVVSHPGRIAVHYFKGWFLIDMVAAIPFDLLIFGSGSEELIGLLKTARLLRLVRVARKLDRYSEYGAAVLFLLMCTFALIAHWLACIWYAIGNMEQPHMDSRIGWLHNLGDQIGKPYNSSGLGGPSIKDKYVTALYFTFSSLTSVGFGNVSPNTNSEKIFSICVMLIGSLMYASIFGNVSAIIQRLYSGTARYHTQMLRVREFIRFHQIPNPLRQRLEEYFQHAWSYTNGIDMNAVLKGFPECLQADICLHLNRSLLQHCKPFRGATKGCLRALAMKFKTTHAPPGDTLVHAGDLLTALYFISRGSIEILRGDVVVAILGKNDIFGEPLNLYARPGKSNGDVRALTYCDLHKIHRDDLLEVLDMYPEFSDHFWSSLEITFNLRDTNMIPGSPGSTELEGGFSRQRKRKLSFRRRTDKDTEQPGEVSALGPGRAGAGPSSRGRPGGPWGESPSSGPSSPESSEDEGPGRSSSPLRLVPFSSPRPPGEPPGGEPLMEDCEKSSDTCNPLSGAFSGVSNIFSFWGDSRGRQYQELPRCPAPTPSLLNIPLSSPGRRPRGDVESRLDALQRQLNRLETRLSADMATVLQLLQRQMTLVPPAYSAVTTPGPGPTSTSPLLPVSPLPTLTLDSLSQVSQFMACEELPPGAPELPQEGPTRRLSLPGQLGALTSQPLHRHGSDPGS

logD [1]	Papp [2] [×10⁻⁶ cm/s]	clearance [3] [mL/min/kg]	Stability (Liver microsomes)	Compound	inhibition at 30 µM (hERG (KCNH2)) [%]	Activity (Rattus norvegicus [4])	inhibition (Mus musculus [5])	Activity (Rattus norvegicus [6])	Activity (Salmonella typhimurium)	Activity (Rattus norvegicus [7])	ED50 (Mus musculus [8]) [mg/kg]
-0.15	–	–	–	Nc1ncnc2c1C(=O)N(c1ccc([C@H]3CC[C@H](CC(=O)O)CC3)cc1)CCO2 [PF-04620110]	–	–	–	–	–	–	–
0.74	7.7	2	Unstable	Nc1ncnc2c1O[C@@H](c1ccc([C@H]3CC[C@H](CC(=O)O)CC3)cc1)CO2	8	Non-toxic	Active	Non-toxic	Non-toxic	Non-toxic	–
–	–	–	–	CC1(C)Oc2ncnc(N)c2N=C1c1ccc([C@H]2CC[C@H](CC(=O)O)CC2)cc1	–	–	–	–	–	–	0.3
